Laboratory results taken from patent US5354865A, “Phenylmethyl derivatives having lipoxygenase inhibitory activity” (Abbott Laboratories, priority 1992, dated 1994).

Each compound was assayed against T1, 5-Lipoxygenase (Homo sapiens, UniProt P09917) (assay: Inhibition of leukotriene biosynthesis: calcium ionophore A23187-induced LTB4 biosynthesis in human whole blood (RIA)). Settings: @ 0.20 μM; human whole blood, A23187; read-out: Inhibition of stimulated LTB4 formation in human whole blood.
T1 construct: from tissue; host or cells: human heparinized whole blood (endogenous enzyme of its blood cells)
T1 sequence (P09917 1-674): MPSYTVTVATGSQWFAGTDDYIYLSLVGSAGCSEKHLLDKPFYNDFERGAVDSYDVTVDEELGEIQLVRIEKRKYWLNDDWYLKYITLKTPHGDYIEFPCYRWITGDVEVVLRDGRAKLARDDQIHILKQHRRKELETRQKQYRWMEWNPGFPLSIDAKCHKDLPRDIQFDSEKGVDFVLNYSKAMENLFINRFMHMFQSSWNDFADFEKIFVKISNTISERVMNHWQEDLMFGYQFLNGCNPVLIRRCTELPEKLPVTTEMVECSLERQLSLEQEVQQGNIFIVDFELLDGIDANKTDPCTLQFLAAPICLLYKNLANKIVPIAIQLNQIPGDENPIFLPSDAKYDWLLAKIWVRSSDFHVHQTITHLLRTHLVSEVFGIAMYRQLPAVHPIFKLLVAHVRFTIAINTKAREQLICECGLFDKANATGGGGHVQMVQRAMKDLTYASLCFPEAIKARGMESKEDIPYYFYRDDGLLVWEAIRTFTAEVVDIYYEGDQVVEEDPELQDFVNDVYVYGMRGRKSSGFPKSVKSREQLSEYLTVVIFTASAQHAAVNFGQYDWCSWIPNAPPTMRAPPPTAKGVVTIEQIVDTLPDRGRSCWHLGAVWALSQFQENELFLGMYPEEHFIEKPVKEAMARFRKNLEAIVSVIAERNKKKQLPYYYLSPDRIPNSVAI
Assay type: cell-based
Experimental: Inhibition of leukotriene biosynthesis was evaluated in an assay, involving calcium ionophore-induced LTB4 biosynthesis expressed human whole blood. Human heparinized whole blood was preincubated with test compounds or vehicle for 15 min at 37° C. followed by calcium ionophore A23187 challenge (final concentration of 8.3 μM) and the reaction terminated after 30 min by adding two volumes of methanol containing prostaglandin B2 as an internal recovery standard. The methanol extract was analyzed for LTB4 using a commercially available radioimmunoassay.

Row | inhibition at 0.2 µM | SMILES
1 | 99.6% | CON=C(c1cc(F)cc(OCc2ccc3c(ccc(=O)n3C)c2)c1)C1CCOCC1 [Example 15, E- and Z-O-methyl-[(3-((1,2-dihydro-1-methyl-2-oxoquinolin-6-yl)methoxy)-5-fluorophen-1-yl)oximinomethyl]tetrahydropyran]

Same assay, conditions: @ 0.39 μM; human whole blood, A23187; read-out: Inhibition of stimulated LTB4 formation in human whole blood

Row | inhibition at 0.39 µM | SMILES
2 | 68% | CON=C(c1cccc(OCc2ccc3ccccc3c2)c1)C1CCOCC1 [Example 7, E- and Z-O-methyl-4-[(3-(naphth-2-yl)methoxyphen-1-yl)oximinomethyl]tetrahydropyran]
3 | 73% | Cn1c(=O)ccc2cc(COc3cccc(C(=NO)C4CCOCC4)c3)ccc21 [Example 11, E- and Z-4-[(3-((1,2-dihydro-1-methyl-2-oxoquinolin-6-yl)methoxy)phen-1-yl)oximinomethyl]tetrahydropyran]

Same assay, conditions: @ 0.78 μM; human whole blood, A23187; read-out: Inhibition of stimulated LTB4 formation in human whole blood

Row | inhibition at 0.78 µM | SMILES
4 | 98% | Cn1c(=O)ccc2cc(COc3cc(F)cc(C(=NO)C4CCOCC4)c3)ccc21 [Example 16, E- and Z-4-[(3-((1,2-dihydro-1-methyl-2-oxoquinolin-6-yl)methoxy)-5-fluorophen-1-yl) oximinomethyl]tetrahydropyran]
5 | 99% | CON=C(c1cccc(OCc2ccc3c(ccc(=O)n3C)c2)c1)C1CCOCC1 [Example 12, E- and Z-O-Methyl-4-[(3-((1,2-dihydro-1-methyl-2-oxoquinolin-6-yl)methoxy)phen-1-yl)oximinomethyl]tetrahydropyran]

Same assay, conditions: human heparinized whole blood, 15 min preincubation at 37° C., A23187 8.3 μM, 30 min; LTB4 by RIA; read-out: In vitro inhibitory potency against 5-lipoxygenase from stimulated LTB4 formation in human whole blood, IC50

Row | IC50 | SMILES
6 | 2400 nM | NN=C(c1cccc(OCc2ccc3ccccc3c2)c1)C1CCOCC1 [Example 6]
7 | 830 nM | CCON=C(c1cccc(OCc2ccc3c(ccc(=O)n3C)c2)c1)C1CCOCC1 [Example 13, E- and Z-O-Ethyl-4-[(3-((1,2-dihydro-1-methyl-2-oxoquinolin-6-yl)methoxy)phen-1-yl)oximinomethyl]tetrahydropyran]
8 | 710 nM | COC(c1cccc(OCc2ccc3c(ccc(=O)n3C)c2)c1)C1CCOCC1 (centres unmarked) [Example 9, 4-[(3-(1,2-dihydro-1-methyl-2-oxoquinolin-6-yl)methyloxyphen-1-yl)methoxymethyl]tetrahydropyran]
9 | 5200 nM | CC1(C(=NO)c2cc(F)cc(OCc3ccc4ccccc4c3)c2)COC1 [Example 18, E- and Z-3-methyl-3-[(3-((naphth-2-yl)methoxy)-5-fluorophen-1-yl)oximinomethyl]oxetane]
10 | 940 nM | COCOC(c1cccc(OCc2ccc3c(ccc(=O)n3C)c2)c1)C1CCOCC1 (centres unmarked) [Example 10, 4-[(3-((1,2-dihydro-1-methyl-2-oxoquinolin-6-yl)methoxy)phen-1-yl)methoxymethoxymethyl]tetrahydropyran]
11 | 2000 nM | COC1(Cc2cccc(OCc3ccc4ccccc4c3)c2)CCOCC1 [Example 14, 4-methoxy-4-[(3-((naphth-2-yl)methoxy)phen-1-yl)methyl]tetrahydropyran]
12 | 730 nM | COC(c1cccc(OCc2ccc3ccccc3c2)c1)C1CCOCC1 (centres unmarked) [Example 2, 4-[(3-(naphth-2-yl)methoxyphen-1-yl)methoxymethyl]tetrahydropyran]
13 | 2900 nM | CON=C(c1cc(F)cc(OCc2ccc3ccccc3c2)c1)C1(C)COC1 [Example 17, E- and Z-O-methyl-3-methyl-3-[(3-((naphth-2-yl)methoxy)-5-fluorophen-1-yl)oximinomethyl]oxetane]
14 | 3500 nM | OC(c1cccc(OCc2ccc3ccccc3c2)c1)C1CCOCC1 (centres unmarked) [Example 1, 4-[(3-(naphth-2-yl)methoxyphen-1-yl)hydroxymethyl]tetrahydropyran]
